Data: US20260124192A1, “COMPOUNDS, COMPOSITIONS, AND METHODS OF TREATING RNA VIRAL INFECTIONS” (priority 2024, published 2026)
pEC50, pIC50: −log10 of the molar value. Where two headings read alike, the source gives them in different places.

Legend:
CoV229E = experiment: Anti-Coronavirus 229E cytoprotection (CPE) assay, MRC-5 (Method 3); type: cell-based, human Coronavirus 229E; conditions: for EC50: Human coronavirus 229E, MRC5, […]
Cytotoxicity, XTT, MRC-5 = conditions: human
HCV genotype 1b replicon = experiment: microbe, parasite or virus in culture; type: cell-based, Hepatitis C Virus; conditions: for pEC50 / HCV 1b - percent effect: Huh-luc/neo-ET replicon; for pEC50: 72 hours, luciferase, read-out: HCV 1b - EC50; for HCV 1b - percent effect: @ 10 μM
[1] = XTT cell viability assay, Huh-luc/neo-ET; type: cell-based; conditions: human, Huh-luc/neo-ET cells, XTT, 72 hours, read-out: HCV 1b - TC50
Description: (§1) Twenty-four hours after seeding the cells, the cell culture supernatant was removed from each well and replaced with 175 μL fresh complete medium minus G418. Test compounds were evaluated at a high-test concentration of 10 μM and five serial half-logarithmic dilutions in three biological replicates. In three biological replicates, Sofosbuvir was evaluated in parallel at a high-test concentration of 1 μM and five serial half-logarithmic dilutions. Compounds were first serially diluted in DMSO to 400× of each final in-well concentration. An intermediate 8× solution was prepared in a complete medium and then added to the cells in a volume of 25 μL per well. A complete medium containing an equal percentage of DMSO (v/v) was added to vehicle-treated control cells. The final DMSO concentration was 0.25% (v/v) for all samples. The cells were incubated for an additional 72 hours at 37° C./5% CO2, then HCV replication was measured by luciferase activity and cell viability was assessed in parallel using an XTT colorimetric assay.
(§2) Huh-luc/neo-ET cell viability was measured at 72 hours after treatment using the tetrazolium dye XTT (2,3-bis(2-methoxy-4-nitro-5-sulfophenyI)-5[(phenylamino)carbonyl]-2H-tetrazolium hydroxide). Mitochondrial enzymes of metabolically active cells metabolize XTT-tetrazolium to a soluble formazan product. XTT solution was prepared fresh at 1 mg/mL in DMEM. Phenazine methosulfate (PMS) solution was prepared at 0.15 mg/mL in PBS and stored in the dark at −20° C. An XTT/PMS stock was prepared immediately before use by adding 40 μL of PMS per ml of XTT solution. Fifty microliters (50 μL) XTT/PMS were added per well, and the cells were incubated for 4 hours at 37° C. The cell culture plates were then sealed with adhesive plate sealers and shaken gently or inverted several times to mix the soluble formazan product. The formazan product was measured spectrophotometrically by absorbance at 450/650 nm on a Vmax plate reader (Molecular Devices). The raw data in Softmax Pro 5.4.2 software was imported into Microsoft Excel for further analysis. Data are presented as absorbance values (450/650 nm) or the percentage of viable cells relative to vehicle-treated control (mean+1—standard deviation, n=3 biological replicates from one independent experiment).

[2] = test system: MCF7 wild-type cell lines; experiment: MCF7 growth inhibition assay (Cell Titre Glo 2.0); type: cell-based; conditions: Homo sapiens
Description: The growth inhibition properties of inhibitors on MCF7 wild-type cell lines were evaluated using the Cell Titre Glo 2.0 cell viability reagent. The assay utilized 384-well black clear bottom plates with 20 μl of MCF7 wild-type cell suspension mixed with reference/test compounds and 20 μl of Cell Titre Glo 2.0 reagent. Cells were seeded at a density of 1000 cells/well in DMEM High Glucose culture media+10% Fetal Bovine Serum (FBS). Staurosporine and Camptothecin served as positive controls for confirming cytotoxicity at a concentration of 30 μM, and vehicle control of 1% DMSO was used to standardize conditions across all test points. The assay and culture media both contained 1% DMSO. Assays were conducted in duplicate for each concentration of the test compounds. The incubation period for the assay was set at 120 hours, after which growth inhibition was assessed. Using a multi-mode reader, the assay readout was based on luminescence measured in Relative Light Units (RLUs). The viability luminescence signal was monitored continually from the same wells over an extended period, allowing for detailed analysis of cell viability. Measurements were taken using an integration time ranging from 0.25 to 1 second across plates designated for various time points.
Cells were maintained and seeded in 384 […] plates, maintaining 1000 cells/well. Seeded plates were incubated at 37° C., 5% CO2 for 16-18 hours to ensure optimal cell adherence and growth. Post-incubation, reference, and test compounds were added carefully to the wells for further processing. Plates were incubated again at 37° C., 5% CO2 for 120 hours (5 days) to allow compound effects. This was followed by the addition of CTG reagent as per the kit's instruction protocol for 30 minutes and RLU data to be recorded. Post plate read data to be analyzed using GraphPad Prism for software IC50 value generation.
Next, the NCEs were tested for selective estrogen regulation modulation activity by using a growth inhibition assay. The assay is performed on MCF7 cells, which are derived from a hormone-dependent breast cancer that stops growing upon estrogen receptor inhibition. […] Staurosporine and Camptothecin served as positive controls for cytotoxicity and 1% DMSO as the vehicle control.

Huh-luc/neo-ET cells = experiment: XTT cell viability assay, Huh-luc/neo-ET; type: cell-based; conditions: XTT, 72 hours, read-out: HCV 1b - TC50
Description: as §1, §2

MRC-5 cells = experiment: Cytotoxicity, XTT, MRC-5; conditions: read-out: CoV229E - TC50; MRC-5; XTT; six days
[3] = read-out: CoV229E - EC50 (μM), MRC-5, XTT cytoprotection, six days
[4] = MCF7 growth inhibition, 120 hours, read-out: MCF-7 IC50

CCC(CC)COC(=O)[C@H](C)N[P@](=O)(OC[C@H]1O[C@@](C#N)(c2ccc3c(N)ncnn23)[C@H](O)[C@@H]1O)Oc1ccccc1 [Remdesivir, reference compound]
EC50 (CoV229E; read-out: CoV229E - EC50 (μM)): 0.14 µM | CC50 at 6 days (Cytotoxicity, XTT, MRC-5): > 1 µM

Nc1cccc2c1nc(-c1ccc(F)cc1)n2Cc1ccc(OCCC2CCCCC2)cc1 [MCAA-11]
EC50 (CoV229E; [3]): 2.74 µM | pEC50 (HCV genotype 1b replicon; Hepatitis C virus): 5.38 | CC50 at 72 h [1]: 5.82 µM | pIC50 [2, 4]: 5.78 | CC50 at 6 days (Cytotoxicity, XTT, MRC-5): > 5 µM

Nc1cccc2nc(-c3ccc(F)cc3)n(Cc3ccc(OCCC4CCCCC4)cc3)c12 [MCAA-09]
CoV229E - percent effect (CoV229E; @ 5 μM, MRC-5): 13% @ | pEC50 (HCV genotype 1b replicon; Hepatitis C virus): < 5.00 | CC50 at 72 h [1]: > 10 µM | pIC50 [2, 4]: 5.92 | CC50 at 6 days (Cytotoxicity, XTT, MRC-5): > 5 µM

COc1ccc(-c2c(Cc3ccc(OCCN4CCCCC4)cc3)c3ccc(OC)cc3n2C)cc1 [MCAA-01]
pEC50 (CoV229E; MRC-5, XTT cytoprotection, six days, read-out: CoV229E - EC50): 5.73 | CC50 (Huh-luc/neo-ET cells): > 10 µM | CC50 (MRC-5 cells): > 5 µM

CC(C)OC(=O)[C@H](C)N[P@](=O)(OC[C@H]1O[C@@H](n2ccc(=O)[nH]c2=O)[C@](C)(F)[C@@H]1O)Oc1ccccc1 [Sofosbuvir, reference compound]
EC50 (HCV genotype 1b replicon; Hepatitis C virus, Huh-luc/neo-ET, 72 h, read-out: HCV 1b - EC50 (μM)): 0.06 µM | CC50 at 72 h [1]: > 1 µM

O=[N+]([O-])c1cccc2nc(-c3ccc(F)cc3)n(Cc3ccc(OCCN4CCCCC4)cc3)c12 [MCAA-12]
EC50 (CoV229E; [3]): 2.94 µM | pEC50 (HCV genotype 1b replicon; Hepatitis C virus): 5.56 | CC50 at 72 h [1]: > 10 µM | pIC50 [2, 4]: 5.94 | CC50 at 6 days (Cytotoxicity, XTT, MRC-5): > 5 µM

Fc1ccc(-c2cc3sccc3n2Cc2ccc(OCCC3CCCCC3)cc2)cc1 [MCAA-07]
CoV229E - percent effect (CoV229E; @ 5 μM, MRC-5): 11% @ | HCV 1b - percent effect (HCV genotype 1b replicon): 30% @ | CC50 at 72 h [1]: > 10 µM | pIC50 [2, 4]: < 5.00 | CC50 at 6 days (Cytotoxicity, XTT, MRC-5): > 5 µM

O=[N+]([O-])c1cccc2c1nc(-c1ccc(F)cc1)n2Cc1ccc(OCCN2CCCCC2)cc1 [MCAA-13]
EC50 (CoV229E; [3]): 2.96 µM | pEC50 (HCV genotype 1b replicon; Hepatitis C virus): 5.15 | CC50 at 72 h [1]: > 10 µM | pIC50 [2, 4]: 5.61 | CC50 at 6 days (Cytotoxicity, XTT, MRC-5): > 5 µM

O=C(O)c1ccc(-c2c(CC3CCCC3)c3ccc(F)cc3n2Cc2ccc(OCCC3CCCCC3)cc2)cc1 [MCAA-03]
CoV229E - percent effect (CoV229E; @ 5 μM, MRC-5): 24% @ | pEC50 (HCV genotype 1b replicon; Hepatitis C virus): 5.07 | CC50 at 72 h [1]: > 10 µM | pIC50 [2, 4]: < 5.00 | CC50 at 6 days (Cytotoxicity, XTT, MRC-5): 2.47 µM

Cc1c(-c2ccc(O)cc2)n(Cc2ccc(OCCC3CCCCC3)cc2)c2ccc(O)cc12 [MCAA-04]
CoV229E - percent effect (CoV229E; @ 1.58 μM, MRC-5): 25% @ | pEC50 (HCV genotype 1b replicon; Hepatitis C virus): < 5.00 | CC50 at 72 h [1]: > 10 µM | pIC50 [2, 4]: 5.65 | CC50 at 6 days (Cytotoxicity, XTT, MRC-5): 2.7 µM

Nc1cccc2c1nc(-c1ccc(F)cc1)n2Cc1ccc(OCCN2CCCCC2)cc1 [MCAA-10]
EC50 (CoV229E; [3]): 2.85 µM | pEC50 (HCV genotype 1b replicon; Hepatitis C virus): 5.14 | CC50 at 72 h [1]: > 10 µM | pIC50 [2, 4]: 6.28 | CC50 at 6 days (Cytotoxicity, XTT, MRC-5): > 5 µM

O=[N+]([O-])c1cccc2c1nc(-c1ccc(F)cc1)n2Cc1ccc(OCCC2CCCCC2)cc1 [MCAA-15]
EC50 (CoV229E; [3]): > 5 µM | HCV 1b - percent effect (HCV genotype 1b replicon): 38% @ | CC50 at 72 h [1]: > 10 µM | pIC50 [2, 4]: 6.24 | CC50 at 6 days (Cytotoxicity, XTT, MRC-5): > 5 µM

COc1ccc(-c2c(Cc3ccc(OCCC4CCCCC4)cc3)c3ccc(OC)cc3n2C)cc1 [MCAA-05]
EC50 (CoV229E; [3]): > 5 µM | pEC50 (HCV genotype 1b replicon; Hepatitis C virus): < 5.00 | CC50 at 72 h [1]: > 10 µM | pIC50 [2, 4]: < 5.00 | CC50 at 6 days (Cytotoxicity, XTT, MRC-5): > 5 µM

C[C@]12CC[C@@H]3c4ccc(O)cc4C[C@@H](CCCCCCCCC[S+]([O-])CCCC(F)(F)C(F)(F)F)[C@H]3[C@@H]1CC[C@@H]2O (stereo partly shown) [Fulvestrant, reference compound]
IC50 ([2]; MCF7, 120 h, read-out: MCF-7 IC50 (μM)): 0.00089 µM | pIC50 ([2]; MCF7, read-out: IC50, MCF7 growth inhibition): 9.05

O=C(O)c1ccc(-c2c(CC3CCCC3)c3ccc(F)cc3n2Cc2ccc(OCCN3CCCCC3)cc2)cc1 [MCAA-02]
EC50 (CoV229E; [3]): 2.78 µM | pEC50 (HCV genotype 1b replicon; Hepatitis C virus): < 5.00 | CC50 at 72 h [1]: > 10 µM | pIC50 [2, 4]: < 5.00 | CC50 at 6 days (Cytotoxicity, XTT, MRC-5): > 5 µM

Nc1cccc2nc(-c3ccc(F)cc3)n(Cc3ccc(OCCN4CCCCC4)cc3)c12 [MCAA-08]
CoV229E - percent effect (CoV229E; @ 5 μM, MRC-5): 33% @ | pEC50 (HCV genotype 1b replicon; Hepatitis C virus): 5.02 | CC50 at 72 h [1]: > 10 µM | pIC50 [2, 4]: < 5.00 | CC50 at 6 days (Cytotoxicity, XTT, MRC-5): > 5 µM

Fc1ccc(-c2cc3sccc3n2Cc2ccc(OCCN3CCCCC3)cc2)cc1 [MCAA-06]
EC50 (CoV229E; [3]): 0.29 µM | pEC50 (HCV genotype 1b replicon; Hepatitis C virus): < 5.00 | CC50 at 72 h [1]: > 10 µM | pIC50 [2, 4]: 5.42 | CC50 at 6 days (Cytotoxicity, XTT, MRC-5): 1.53 µM

O=[N+]([O-])c1cccc2nc(-c3ccc(F)cc3)n(Cc3ccc(OCCC4CCCCC4)cc3)c12 [MCAA-14]
CoV229E - percent effect (CoV229E; @ 5 μM, MRC-5): 31% @ | HCV 1b - percent effect (HCV genotype 1b replicon): 34% @ | CC50 at 72 h [1]: > 10 µM | pIC50 [2, 4]: 5.36 | CC50 at 6 days (Cytotoxicity, XTT, MRC-5): > 5 µM
